Two compounds from patent US11253516B2, “N2,N4-diphenylpyrimidine-2,4-diamine derivative, method for preparing same, and pharmaceutical composition containing same as active ingredient for prevention or treatment of cancer” (Korea Research Institute of Chemical Technology, priority 2017, dated 2022) can be followed below.

One test deals with FLT3 (Homo sapiens (Human), UniProt P36888). In words: KINOMEscan binding, FLT3. Conditions: for inhibitory ability on FLT 3 kinase in comparison with FLT 1 and FLT 4: selectivity in words. As to the method:
(§1) The inhibitory activity on FLT kinase, such as wild-type FLT1, FLT3, FLT4, and FLT3 mutation forms, FLT3(D835H), FLT3(D835V), FLT3(D835Y), FLT3(ITD), FLT3(ITD,D835V), FLT3(ITD,F691L), FLT3(K663Q), FLT3(N841I), FLT3(R834Q) was measured.
(§2) FLT3 kinase inhibition was carried out by KINOMEscan method (DiscoverX Inc.). KINOMEscan method consists of the following processes. T7 bacteriophage labeled with FLT kinase was cultured by the infection to E. coli derived from BL21. After the infection of E. coli in the condition of 0.4 of MOI (multiplicity of infection), it was cultured for 90 to 150 minutes at 32° C. to lyse E. coli. The cell debris was removed by centrifugation and filtration, and the kinase protein present in the supernatant was secured. Additionally, the kinase protein was labeled with DNA for the qPCR measurement. The magnetic beads labeled with streptavidin were treated with the standard compound labeled with biotin and reacted for 30 minutes. The resulting beads were used as affinity beads for the measurement of a kinase activity. The binding reaction was initiated with mixing a kinase protein, the affinity beads bound with a ligand, and the compound. In this case, the used buffer solution was 20% SeaBlock, 0.17×PBS, 0.05% Tween 20, 6 mM DTT. All the reactions were carried out in volume of 20 ul at a 384 well plate. After the reaction for 1 hour at ambient temperature, the beads were washed with the solution consisting of 1×PBS, 0.05 Tween 20. Finally, the kinase bound with the beads was eluted by using 1×PBS, 0.05 Tween 20, 0.5 uM standard compound unlabeled with biotin. The affinity of the compound to be tested was indirectly measured by Quantifying the eluted kinase by […].

The subject of test [1] is Ba/F3 EGFR del19/T790M/C797S cell line. Nature of the test: CellTiter-Glo cell viability, Ba/F3 EGFR del19/T790M/C797S. In kind it is cell-based. Conditions: read-out: Ba/F3 EGFR del19/T790M/C797S IC50. The gist of the method:
(§3)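 Ba/F3 cells expressing mutant EGFR exposed to compound for 72 hours. Viability read as cellular ATP by CellTiter-Glo luminescence after 30 min equilibration at ambient temperature and 10 min shaking with reagent.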
For orientation: ATP-based viability assays read luminescence as a measure of living cells.

The next test has as its target FLT3(R834Q) (Homo sapiens (Human), UniProt P36888, R834Q). Nature of the test: KINOMEscan binding, FLT3(R834Q). As to the method:
as §1
as §2, with “All the reactions were carried out in volume of 20 ul at a 384 well plate. After the reaction for 1 hour at ambient temperature, the beads were washed with the solution consisting of 1×PBS, 0.05 Tween 20. Finally, the kinase bound with the beads was eluted by using 1×PBS, 0.05 Tween 20, 0.5 uM standard compound unlabeled with biotin.” left out

Another test concerns the target FLT3(D835H) (Homo sapiens (Human), UniProt P36888, D835H). Nature of the test: KINOMEscan binding, FLT3(D835H). As to the method:
as §1
as §2, with “All the reactions were carried out in volume of 20 ul at a 384 well plate. After the reaction for 1 hour at ambient temperature, the beads were washed with the solution consisting of 1×PBS, 0.05 Tween 20. Finally, the kinase bound with the beads was eluted by using 1×PBS, 0.05 Tween 20, 0.5 uM standard compound unlabeled with biotin.” left out

A further test deals with FLT3(N841I) (Homo sapiens (Human), UniProt P36888, N841I). In words: KINOMEscan binding, FLT3(N841I). As to the method:
as §1
as §2, with “All the reactions were carried out in volume of 20 ul at a 384 well plate. After the reaction for 1 hour at ambient temperature, the beads were washed with the solution consisting of 1×PBS, 0.05 Tween 20. Finally, the kinase bound with the beads was eluted by using 1×PBS, 0.05 Tween 20, 0.5 uM standard compound unlabeled with biotin.” left out

A further test deals with FLT3(K663Q) (Homo sapiens (Human), UniProt P36888, K663Q). In words: KINOMEscan binding, FLT3(K663Q). On the procedure:
as §1
as §2, with “All the reactions were carried out in volume of 20 ul at a 384 well plate. After the reaction for 1 hour at ambient temperature, the beads were washed with the solution consisting of 1×PBS, 0.05 Tween 20. Finally, the kinase bound with the beads was eluted by using 1×PBS, 0.05 Tween 20, 0.5 uM standard compound unlabeled with biotin.” left out

Another test concerns the target FLT3(ITD) (Homo sapiens, UniProt P36888, ITD). In words: KINOMEscan binding, FLT3(ITD). On the procedure: as §1
as §2, with “All the reactions were carried out in volume of 20 ul at a 384 well plate. After the reaction for 1 hour at ambient temperature, the beads were washed with the solution consisting of 1×PBS, 0.05 Tween 20. Finally, the kinase bound with the beads was eluted by using 1×PBS, 0.05 Tween 20, 0.5 uM standard compound unlabeled with biotin.” left out

A further test deals with EGFR del19 (Homo sapiens (Human), UniProt P00533, DEL746-750). In words: HTRF enzyme assay, EGFR del19. In kind it is biochemical. To be noted: recombinant enzyme. The essentials: (§4)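 Wild-type or mutant EGFR was premixed with compound, then ATP […] and biotinylated peptide […] were added. Buffer was 50 mM Tris-HCl pH 7.5 with NaCl, MgCl2, KCl, Tween 20, BSA and DTT; reactions ran 2 h at 37 °C.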

The next test has as its target FLT3(ITD, F691L) (Homo sapiens, UniProt P36888, F691L/ITD). In words: KINOMEscan binding, FLT3(ITD, F691L). On the procedure: as §1
as §2, with “All the reactions were carried out in volume of 20 ul at a 384 well plate. After the reaction for 1 hour at ambient temperature, the beads were washed with the solution consisting of 1×PBS, 0.05 Tween 20. Finally, the kinase bound with the beads was eluted by using 1×PBS, 0.05 Tween 20, 0.5 uM standard compound unlabeled with biotin.” left out

For another test, the target named is EGFR del19/T790M (Homo sapiens (Human), UniProt P00533, DEL746-750/T790M). Nature of the test: HTRF enzyme assay, EGFR del19/T790M. In kind it is biochemical. Conditions: recombinant enzyme. The gist of the method:
as §4
Background: In TR-FRET formats the signal depends on donor and acceptor labels being close together.

A further test addresses FLT4 (Homo sapiens (Human), UniProt P35916). In words: KINOMEscan binding, FLT4. On the procedure: as §1
as §2, with “All the reactions were carried out in volume of 20 ul at a 384 well plate. After the reaction for 1 hour at ambient temperature, the beads were washed with the solution consisting of 1×PBS, 0.05 Tween 20. Finally, the kinase bound with the beads was eluted by using 1×PBS, 0.05 Tween 20, 0.5 uM standard compound unlabeled with biotin.” left out

Another test addresses FLT3(D835V) (Homo sapiens (Human), UniProt P36888, D835V). Nature of the test: KINOMEscan binding, FLT3(D835V). As to the method: as §1
as §2, with “All the reactions were carried out in volume of 20 ul at a 384 well plate. After the reaction for 1 hour at ambient temperature, the beads were washed with the solution consisting of 1×PBS, 0.05 Tween 20. Finally, the kinase bound with the beads was eluted by using 1×PBS, 0.05 Tween 20, 0.5 uM standard compound unlabeled with biotin.” left out

For another test, the target named is EGFR del19/T790M/C797S (Homo sapiens, UniProt P00533, C797S/DEL746-750/T790M). In words: HTRF enzyme assay, EGFR del19/T790M/C797S. In kind it is biochemical. The essentials: as §4
The test system of test [2] is Ba/F3 EGFR del19/T790M cell line. Nature of the test: CellTiter-Glo cell viability, Ba/F3 EGFR del19/T790M. To be noted: read-out: Ba/F3 EGFR del19/T790M IC50. The class given is cell-based. The gist of the method:
as §3

For a further test, the target named is EGFR wt. (Homo sapiens (Human), UniProt P00533). In words: HTRF enzyme assay, wild-type EGFR. To be noted: recombinant enzyme. The class given is biochemical. The gist of the method:
as §4

A further test concerns the target FLT1 (Homo sapiens (Human), UniProt P17948). Nature of the test: KINOMEscan binding, FLT1. As to the method:
as §1
as §2, with “All the reactions were carried out in volume of 20 ul at a 384 well plate. After the reaction for 1 hour at ambient temperature, the beads were washed with the solution consisting of 1×PBS, 0.05 Tween 20. Finally, the kinase bound with the beads was eluted by using 1×PBS, 0.05 Tween 20, 0.5 uM standard compound unlabeled with biotin.” left out

Like-named read-outs stand apart in the source and are kept apart here.

Chain of FLT4 (P35916 25-1363): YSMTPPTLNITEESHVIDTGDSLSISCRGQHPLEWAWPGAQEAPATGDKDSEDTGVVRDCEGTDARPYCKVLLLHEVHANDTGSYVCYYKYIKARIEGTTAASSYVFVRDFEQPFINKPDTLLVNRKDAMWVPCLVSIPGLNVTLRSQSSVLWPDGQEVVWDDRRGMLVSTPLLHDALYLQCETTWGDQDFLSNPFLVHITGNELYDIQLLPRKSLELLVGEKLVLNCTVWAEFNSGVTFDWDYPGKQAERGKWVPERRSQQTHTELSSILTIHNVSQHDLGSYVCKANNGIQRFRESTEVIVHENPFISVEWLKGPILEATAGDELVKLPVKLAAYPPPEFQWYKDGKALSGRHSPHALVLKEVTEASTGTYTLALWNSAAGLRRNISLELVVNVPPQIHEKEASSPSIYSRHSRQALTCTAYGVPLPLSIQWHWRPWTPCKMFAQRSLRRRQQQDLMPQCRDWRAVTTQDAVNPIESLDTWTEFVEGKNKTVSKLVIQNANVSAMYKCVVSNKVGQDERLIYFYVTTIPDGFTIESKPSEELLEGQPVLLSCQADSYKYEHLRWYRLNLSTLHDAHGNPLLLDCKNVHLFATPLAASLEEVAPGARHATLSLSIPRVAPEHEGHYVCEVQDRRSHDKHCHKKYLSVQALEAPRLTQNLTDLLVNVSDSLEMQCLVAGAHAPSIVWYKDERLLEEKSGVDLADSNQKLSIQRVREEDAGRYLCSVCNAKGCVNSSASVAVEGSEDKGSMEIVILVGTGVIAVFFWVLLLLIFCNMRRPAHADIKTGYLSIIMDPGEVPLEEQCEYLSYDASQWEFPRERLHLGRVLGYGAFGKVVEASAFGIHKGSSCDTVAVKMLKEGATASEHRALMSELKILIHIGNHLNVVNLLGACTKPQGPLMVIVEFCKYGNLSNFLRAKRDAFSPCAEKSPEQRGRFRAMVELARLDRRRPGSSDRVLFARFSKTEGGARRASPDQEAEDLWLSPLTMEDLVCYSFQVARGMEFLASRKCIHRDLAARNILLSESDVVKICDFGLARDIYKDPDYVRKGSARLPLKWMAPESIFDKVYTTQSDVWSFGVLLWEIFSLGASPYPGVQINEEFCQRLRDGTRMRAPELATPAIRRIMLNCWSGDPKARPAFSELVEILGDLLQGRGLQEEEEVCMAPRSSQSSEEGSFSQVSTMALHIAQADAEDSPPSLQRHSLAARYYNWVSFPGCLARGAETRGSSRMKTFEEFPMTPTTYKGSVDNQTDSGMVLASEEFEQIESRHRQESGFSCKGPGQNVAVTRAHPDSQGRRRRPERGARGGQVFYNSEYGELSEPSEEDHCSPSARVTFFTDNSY
Chain of EGFR wt. (P00533 25-1210): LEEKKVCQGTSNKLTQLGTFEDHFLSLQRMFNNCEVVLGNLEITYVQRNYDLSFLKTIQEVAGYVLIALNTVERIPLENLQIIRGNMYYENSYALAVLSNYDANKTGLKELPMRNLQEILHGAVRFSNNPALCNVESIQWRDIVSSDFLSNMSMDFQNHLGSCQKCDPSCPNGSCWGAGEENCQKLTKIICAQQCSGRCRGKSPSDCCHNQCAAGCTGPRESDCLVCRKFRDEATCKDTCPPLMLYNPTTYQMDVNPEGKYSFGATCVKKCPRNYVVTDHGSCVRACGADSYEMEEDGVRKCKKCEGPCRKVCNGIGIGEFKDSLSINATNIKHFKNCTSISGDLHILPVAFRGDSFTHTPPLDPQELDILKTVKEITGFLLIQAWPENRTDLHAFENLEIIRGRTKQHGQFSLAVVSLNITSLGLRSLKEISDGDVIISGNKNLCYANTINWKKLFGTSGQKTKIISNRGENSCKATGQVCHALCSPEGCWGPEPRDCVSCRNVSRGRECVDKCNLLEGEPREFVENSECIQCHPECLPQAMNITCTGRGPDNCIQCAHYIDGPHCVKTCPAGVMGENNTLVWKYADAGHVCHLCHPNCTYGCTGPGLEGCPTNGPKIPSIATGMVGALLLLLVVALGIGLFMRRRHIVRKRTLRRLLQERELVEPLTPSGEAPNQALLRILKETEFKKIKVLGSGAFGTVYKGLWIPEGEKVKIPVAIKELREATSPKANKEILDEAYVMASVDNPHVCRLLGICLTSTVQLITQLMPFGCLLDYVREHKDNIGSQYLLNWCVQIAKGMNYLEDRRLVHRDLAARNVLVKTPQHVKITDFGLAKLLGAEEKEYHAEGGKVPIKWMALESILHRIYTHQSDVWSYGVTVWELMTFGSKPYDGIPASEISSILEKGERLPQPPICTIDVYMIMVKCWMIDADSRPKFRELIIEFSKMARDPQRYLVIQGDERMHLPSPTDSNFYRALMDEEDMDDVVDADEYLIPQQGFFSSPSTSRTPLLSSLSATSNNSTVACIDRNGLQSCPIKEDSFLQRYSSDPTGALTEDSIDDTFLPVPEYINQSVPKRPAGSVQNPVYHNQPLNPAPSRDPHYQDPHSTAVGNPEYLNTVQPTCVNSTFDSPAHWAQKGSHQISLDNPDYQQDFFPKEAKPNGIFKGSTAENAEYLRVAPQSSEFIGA
Chain of EGFR del19/T790M/C797S (P00533 with tags, fused parts or gaps C797S/DEL746-750/T790M limits assumed): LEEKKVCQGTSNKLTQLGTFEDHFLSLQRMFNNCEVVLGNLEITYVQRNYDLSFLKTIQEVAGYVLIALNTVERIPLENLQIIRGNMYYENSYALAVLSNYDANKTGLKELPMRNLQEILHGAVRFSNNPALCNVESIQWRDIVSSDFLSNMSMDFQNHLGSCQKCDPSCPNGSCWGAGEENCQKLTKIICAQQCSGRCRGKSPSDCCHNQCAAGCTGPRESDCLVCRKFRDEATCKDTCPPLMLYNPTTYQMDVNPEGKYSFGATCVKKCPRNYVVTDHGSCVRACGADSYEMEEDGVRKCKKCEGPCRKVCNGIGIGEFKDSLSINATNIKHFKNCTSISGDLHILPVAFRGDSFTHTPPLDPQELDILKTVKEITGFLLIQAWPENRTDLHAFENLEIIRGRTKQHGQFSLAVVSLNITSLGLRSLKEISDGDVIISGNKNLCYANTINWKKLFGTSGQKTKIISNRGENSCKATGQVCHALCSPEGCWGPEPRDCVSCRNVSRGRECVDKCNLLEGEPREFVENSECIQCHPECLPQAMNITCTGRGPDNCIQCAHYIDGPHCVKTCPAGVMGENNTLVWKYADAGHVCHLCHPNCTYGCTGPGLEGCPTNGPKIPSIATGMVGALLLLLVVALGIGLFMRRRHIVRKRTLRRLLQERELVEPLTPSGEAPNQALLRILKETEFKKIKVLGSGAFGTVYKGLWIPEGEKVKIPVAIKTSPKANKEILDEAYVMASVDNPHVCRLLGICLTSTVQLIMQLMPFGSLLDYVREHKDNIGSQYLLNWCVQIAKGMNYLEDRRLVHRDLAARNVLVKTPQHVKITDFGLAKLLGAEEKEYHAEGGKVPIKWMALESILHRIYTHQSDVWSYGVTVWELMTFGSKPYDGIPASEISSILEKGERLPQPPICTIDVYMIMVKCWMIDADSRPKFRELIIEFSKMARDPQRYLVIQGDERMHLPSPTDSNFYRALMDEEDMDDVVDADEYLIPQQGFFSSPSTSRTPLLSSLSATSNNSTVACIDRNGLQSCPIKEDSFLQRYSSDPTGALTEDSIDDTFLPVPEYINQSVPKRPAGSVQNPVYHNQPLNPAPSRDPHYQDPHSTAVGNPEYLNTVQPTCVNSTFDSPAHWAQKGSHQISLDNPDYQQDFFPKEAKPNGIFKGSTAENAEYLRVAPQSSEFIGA
Chain of EGFR del19/T790M (P00533 other isoform, or with tags, fused parts or gaps T790M/del 1-668/del 746-750 limits assumed): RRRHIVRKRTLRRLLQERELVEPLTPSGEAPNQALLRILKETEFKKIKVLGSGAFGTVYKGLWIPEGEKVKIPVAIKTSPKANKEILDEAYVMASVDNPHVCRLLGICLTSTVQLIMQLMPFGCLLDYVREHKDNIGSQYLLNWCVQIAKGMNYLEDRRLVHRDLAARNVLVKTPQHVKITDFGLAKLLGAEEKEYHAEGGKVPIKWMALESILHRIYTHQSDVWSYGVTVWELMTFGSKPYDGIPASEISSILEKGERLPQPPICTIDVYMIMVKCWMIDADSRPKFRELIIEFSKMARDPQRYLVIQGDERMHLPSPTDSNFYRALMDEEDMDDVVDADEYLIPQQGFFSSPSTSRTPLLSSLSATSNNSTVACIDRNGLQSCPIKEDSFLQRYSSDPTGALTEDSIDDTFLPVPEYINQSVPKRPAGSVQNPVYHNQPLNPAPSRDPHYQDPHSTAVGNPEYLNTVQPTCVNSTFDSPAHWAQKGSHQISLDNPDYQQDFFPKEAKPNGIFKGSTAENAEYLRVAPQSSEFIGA
Chain of EGFR del19 (P00533 other isoform, or with tags, fused parts or gaps del 1-668/del 746-750 limits assumed): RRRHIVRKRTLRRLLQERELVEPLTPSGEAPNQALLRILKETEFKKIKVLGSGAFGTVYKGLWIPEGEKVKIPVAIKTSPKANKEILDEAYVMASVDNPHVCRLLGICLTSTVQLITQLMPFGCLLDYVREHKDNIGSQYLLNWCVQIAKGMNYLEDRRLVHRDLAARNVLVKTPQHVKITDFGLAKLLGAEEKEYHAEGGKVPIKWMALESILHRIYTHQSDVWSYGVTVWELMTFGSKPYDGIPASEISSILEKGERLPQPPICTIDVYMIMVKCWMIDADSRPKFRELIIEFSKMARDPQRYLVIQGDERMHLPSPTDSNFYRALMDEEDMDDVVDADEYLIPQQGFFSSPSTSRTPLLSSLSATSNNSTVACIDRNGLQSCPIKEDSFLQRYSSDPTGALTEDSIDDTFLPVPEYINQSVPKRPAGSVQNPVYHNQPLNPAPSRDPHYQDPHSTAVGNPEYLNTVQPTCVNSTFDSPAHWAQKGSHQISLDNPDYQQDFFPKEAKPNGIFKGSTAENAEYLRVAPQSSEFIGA

The Kd is the concentration at which binding is half-saturated. With `COc1cc(N2CCC(N3CCN(C)CC3)CC2)ccc1Nc1ncc(Cl)c(Nc2ccccc2NS(C)(=O)=O)n1` [Example 10, N-(2-((5-chloro-2-((2-methoxy-4-(4-(4-methylpiperazin-1-yl)piperidin-1-yl)phenyl)amino)pyrimidin-4-yl)amino)phenyl)methanesulfonamide], the Kd at FLT3 was found to be 3.7 nM; at FLT3(R834Q), 33 nM; on FLT3(D835H) it was 38 nM; at FLT3(N841I) it was 6.5 nM; at FLT3(K663Q), 39 nM; at FLT3(ITD) it was 18 nM. Moreover, the Kd was 1.1 nM on FLT3(ITD, F691L); 200 nM at FLT4; 0.29 nM on FLT3(D835V); over 10000 nM at FLT1. On FLT3, the “inhibitory ability on FLT 3 kinase in comparison with FLT 1 and FLT 4” value is “selectively superior inhibitory ability”. In addition, the IC50 in test [1] (72 h) was 63 nM; on EGFR del19 it was 0.7 nM; at EGFR del19/T790M it was 4 nM; at EGFR del19/T790M/C797S it was 0.2 nM; in test [2] (72 h) it was 99 nM; on EGFR wt., 430 nM.

For `COc1cc(N2CCC(N(C)C)CC2)ccc1Nc1ncc(Cl)c(Nc2ccccc2NS(C)(=O)=O)n1` [Example 11, N-(2-((5-chloro-2-((4-(4-(dimethylamino)piperidin-1-yl)-2-methoxyphenyl)amino)pyrimidin-4-yl)amino)phenyl)methanesulfonamide], the Kd worked out at 1.2 nM at FLT3; 19 nM on FLT3(R834Q); 1.8 nM at FLT3(D835H); 3.8 nM at FLT3(N841I); 20 nM at FLT3(K663Q); 4.2 nM at FLT3(ITD). The Kd on FLT3(ITD, F691L) came out at 0.27 nM; at FLT4, 81 nM; at FLT3(D835V), 0.082 nM; at FLT1, 910 nM. Moreover, on FLT3, the “inhibitory ability on FLT 3 kinase in comparison with FLT 1 and FLT 4” value is listed as “selectively superior inhibitory ability”. Also, the IC50 in [1] (CellTiter-Glo, 72 hours) came out at 38 nM; on EGFR del19 it was 7.8 nM; at EGFR del19/T790M, 3.1 nM; on EGFR del19/T790M/C797S (HTRF, recombinant enzyme, read-out: EGFR del19/T790M/C797S IC50), 6 nM; in test [2] (CellTiter-Glo, 72 hours) it was 31 nM; on EGFR wt. it was 280 nM.
